Data from article PMC8623398, “Investigation of the Mechanisms of Cytotoxic Activity of 1,3-Disubstituted Thiourea Derivatives” (Pharmaceuticals, 2021).

How the values were obtained:
HaCaT cells = experiment: MTT assay, HaCaT normal cells; type: cell-based, human; details: 72 h
Procedure: (§1) As a first step in assessing their cytotoxic properties, all thioureas of the series were assayed against four human carcinoma cell lines, such as SW480 (primary colon cancer), SW620 (metastatic colon cancer), PC3 (metastatic prostate cancer), and K-562 (chronic myelogenous leukemia), as well as against the normal cell line HaCaT (immortalized human keratinocytes). Table 1 lists the compound concentrations that produced 50% of growth inhibition (IC50, μM), generated by the MTT method, in comparison with two commonly used chemotherapeutic agents, doxorubicin and cisplatin.
(§2) The human primary (SW480), metastatic (SW620) colon cancer, metastatic prostate cancer (PC3), chronic myelogenous leukemia (K-562), and human immortal keratinocyte (HaCaT) cell lines were purchased from the American Type Culture Collection (ATCC, Rockville, MD, USA). The cells were cultured in medium according to protocols (MEM for SW480 and SW620, RPMI 1640 for PC3 and K-562, and DMEM for HaCaT cells), supplemented with 10% FBS, penicillin (100 U/mL) and streptomycin (100 μg/mL), and cultured in a 37 °C/5% CO2 humidified incubator. The cells were cultured until appropriate confluence was achieved (80–90%). Next, they were harvested by treatment with 0.25% trypsin (Gibco Life Technologies, Waltham, MA, USA) excluding the non-adherent K-562 cell line and used for studies.
(§3) Cells without the studied compounds in medium were used as a control.
(§4) The cell viability was assessed by determination of MTT salt [3-(4,5-dimethylthiazol-2-yl)-2,5-diphenyltetrazoliumbromide] conversion by mitochondrial dehydrogenase. The MTT assay was performed as previously described. Alternatively, non-adherent leukemic cells were centrifuged in a microplate centrifuge (400× g, 5 min) during the collection stages. Experiments were repeated three times. Cell viability was presented as a percent of MTT reduction in the treated cells versus the control cells. The number of viable cells cultured without the studied compounds was assumed as 100%. A decreased relative MTT level indicated decreased cell viability. Thiourea compounds with the highest cytotoxic potential assessed by MTT determination (with the lowest IC50) were chosen for subsequent assessments of cytotoxicity mechanisms.

SW620 cells = experiment: MTT assay, SW620; type: cell-based, human; details: 50% growth inhibition
Procedure: as §1, §2, §3, §4

SW480 cells = experiment: MTT assay, SW480; type: cell-based, human; details: 50% growth inhibition
Procedure: as §1, §2, §3, §4

PC3 cells = experiment: MTT assay, PC3; type: cell-based; details: Homo sapiens, PC-3, 72 h, 50% growth inhibition
Procedure: as §1, §2, §3, §4

K-562 cells = experiment: MTT assay, K562; type: cell-based, human; details: 50% growth inhibition
Procedure: as §1, §2, §3, §4

[1] = tested on: SW480, SW620, PC3, K-562 cells; experiment: MTT assay, summary over cancer cell lines; type: cell-based; details: Homo sapiens, 72 h, depending on the tumor line, read-out: IC50 (range or bound over cancer cell lines)
Procedure: as §1, §3, §4

| Compound | IC50 (HaCaT cells; Homo sapiens, HaCaT) | IC50 (SW620 cells; Homo sapiens, SW-620, 72 h) | IC50 (SW480 cells; Homo sapiens, SW480, 72 h) | IC50 (PC3 cells) | IC50 (K-562 cells; Homo sapiens, K562, 72 h) | IC50 (K-562 cells; 72 h) | IC50 [1] | melting point | IC50 (SW480 cells; 72 h) | IC50 (HaCaT cells) | IC50 (SW620 cells; 72 h) |
| --- | --- | --- | --- | --- | --- | --- | --- | --- | --- | --- | --- |
| COc1cccc2c1C(=O)c1c(O)c3c(c(O)c1C2=O)C[C@@](O)(C(=O)CO)C[C@@H]3O[C@H]1C[C@H](N)[C@H](O)[C@H](C)O1 [Doxorubicin, reference compound] | 0.3 ± 0.11 µM | 0.3 ± 0.08 µM | 0.8 ± 0.1 µM | 0.3 ± 0.12 µM | 0.2 ± 0.1 µM | – | – | – | – | – | – |
| N#Cc1ccc(NC(=S)Nc2cccc(C(F)(F)F)c2)cc1 [Compound 10, 1-(4-cyanophenyl)-3-[3-(trifluoromethyl)-phenyl]thiourea] | 50.1 ± 4.89 µM | 18.7 ± 5.92 µM | 20.6 ± 3.59 µM | 66.2 ± 4.47 µM | 10.2 to 12.9 µM | 12.9 ± 4.33 µM | – | – | – | – | – |
| Cc1c(Cl)cccc1NC(=S)Nc1cccc(C(F)(F)F)c1 [Compound 5, 1-(3-chloro-2-methylphenyl)-3-[3-(trifluoromethyl)phenyl]thiourea] | 55.6 ± 1.74 µM | 23.2 ± 4.07 µM | 7.3 ± 0.89 µM | 51.8 ± 3.19 µM | 52.5 ± 2.14 µM | – | ≤ 10 µM | 163 to 165 °C | – | – | – |
| Cc1ccc(Cl)cc1NC(=S)Nc1cccc(C(F)(F)F)c1 [Compound 6, 1-(5-chloro-2-methylphenyl)-3-[3-(trifluoromethyl)phenyl]thiourea] | 14.5 ± 1.08 µM | 22.1 ± 4.36 µM | 12.7 to 15.6 µM | 65.9 ± 10.5 µM | 40.3 ± 3.88 µM | – | – | – | 15.6 ± 4.1 µM | – | – |
| FC(F)(F)c1cccc(NC(=S)Nc2cccc(Cl)c2Cl)c1 [Compound 4, 1-(2,3-dichlorophenyl)-3-[3-(trifluoromethyl)phenyl]thiourea] | 13.9 ± 1.7 µM | 14 ± 1.73 µM | 22.5 ± 0.1 µM | 10.5 ± 2.52 µM | 35.9 ± 0.07 µM | – | ≤ 10 µM | – | – | – | – |
| N.N.[Cl][Pt][Cl] [Cisplatin, reference compound] | – | – | – | – | – | 8.2 ± 4.08 µM | – | – | 10.4 ± 0.9 µM | 6.3 ± 0.7 µM | 6.7 ± 1.1 µM |
| FC(F)(F)c1cccc(NC(=S)Nc2ccc(Br)cc2)c1 [Compound 11, 1-(4-bromophenyl)-3-[3-(trifluoromethyl)phenyl]thiourea] | 17.2 ± 0.64 µM | 16.2 ± 4.08 µM | 41.5 ± 4.46 µM | 76.6 ± 4.7 µM | 74.2 ± 6.82 µM | – | – | – | – | – | – |
| FC(F)(F)c1cccc(NC(=S)Nc2ccccc2C(F)(F)F)c1 [Compound 7, 1-[2-(trifluoromethyl)phenyl]-3-[3-(trifluoromethyl)phenyl]thiourea] | 65.7 ± 3.83 µM | 30.1 ± 9.74 µM | > 100 µM | 17.1 ± 0.57 µM | 76.5 ± 4.57 µM | – | – | 173 to 175 °C | – | – | – |
| FC(F)(F)c1cccc(NC(=S)NCCc2ccccc2)c1 [Compound 12, 1-(2-phenylethyl)-3-[3-(trifluoromethyl)-phenyl]thiourea] | 55.4 ± 1.08 µM | 38.2 ± 3.1 µM | 25.3 ± 8.53 µM | 26.7 ± 3.95 µM | 23.8 ± 0.45 µM | – | 23.8 to 38.2 µM | – | – | – | – |
